Where “and” joins values, the source holds several entries; their conditions need not be identical. Equal values may be shown once.
Assays:
[1] = system: HTLV-I; conditions: in vitro; non-patent documents 4-6; cited from earlier work
[2] = system: HAM patients; conditions: in vivo test; non-patent documents 4 and 5; cited from earlier work
[3] = system: HAM; conditions: recent case-control study; non-patent document 3; cited from earlier work
[4] = system: HAM patients; experiment: 10 m gait time, clinical test in HAM patients; assay type: in vivo, human; conditions: for 10 m gait: individual HAM cases, same s.c. regimen; for 10 m gait, mean value: mean of tested cases
From the text: (§1) The main symptoms of HAM are motility/gait disorders and the like. As items for the clinical evaluation of these symptoms, lower leg motility function (walking time, time for descending stairs, spasticity, motility dysfunction level etc.) tests and the like can be mentioned. By evaluating these items before and after administration of pentosan polysulfate, the treatment effect of subcutaneous injection of pentosan polysulfate on HAM was verified.
(§2) Subject: 12 cases of HAM patients (9 females, 3 males, age; 49-77 years old, duration of illness; 3-52 years) (Table 1).
(§3) Test method: Sodium pentosan polysulfate was subcutaneously administered by 25 mg for the first time (0 week), 50 mg 1 week later, 100 mg once a week from the second week to the 7th week to the brachial region. The test medicament was used in 1 ml ampoule of sodium pentosan polysulfate (100 mg/ml) supplied by bene pharmaChem of Germany.
(§4) Test items: the subjective symptoms and neurological observations (including spasticity, gait time, time for descending stairs, motility dysfunction level and the like) were checked at the time of screening, week 0 (initial administration), week 8 from the start of treatment (week 1 after completion of treatment) and week 12 from the start of treatment (week 5 after completion of treatment). Similarly, general clinical tests, and immunological (serum soluble IL-2 receptor (sIL-2R), peripheral blood lymphoblastogenesis test) and virological tests (amount of peripheral blood HTLV-I provirus (real-time quantitative PCR method), anti-HTLV-I antibody titer) were performed.

[5] = system: serum soluble IL-2 receptor (sIL-2R); experiment: serum soluble IL-2 receptor (sIL-2R), clinical test in HAM patients; assay type: in vivo, human; conditions: for sIL-2R: individual HAM cases, same s.c. regimen
Description: as §2, §3, §4

[6] = system: anti-HTLV-I antibody; experiment: anti-HTLV-I antibody titer (PA method), clinical test in HAM patients; assay type: in vivo, human; conditions: start vs week 8, week 12 (Table 4)
Description: as §2, §3, §4

[7] = system: HAM patients; experiment: motility dysfunction level (Osame scale), clinical test in HAM patients; assay type: in vivo, human; conditions: 12 HAM cases; 0-13 scale; changes not found in other cases
From the text: As regards the gait disorder due to HAM-related spastic paraplegia, the gait disorder in the present specification includes not only disorder in walking but also disorder in running and ascending and descending stairs, as well as wheelchair state and bedridden state due to gait function disorders. […]
as §4, with “performed. […]” for “performed.”

[8] = system: HAM patients; experiment: 30 m gait time, clinical test in HAM patients; assay type: in vivo, human; conditions: for 30 m gait: individual HAM cases, same s.c. regimen; for 30 m gait, mean value: mean of tested cases
From the text: as §1, §2, §3, §4

[9] = system: HAM patients; experiment: time for descending stairs (10 stairs), clinical test in HAM patients; assay type: in vivo, human; conditions: for descending stairs (10 stairs): individual HAM cases, same s.c. regimen; for descending stairs, mean value: mean of tested cases
From the text: as §1, §2, §3, §4

[10] = system: peripheral blood lymphoblastogenesis; experiment: lymphoblastogenesis test (stimulation index to PHA), clinical test in HAM patients; assay type: in vivo, human
Description: as §2, §3, §4

[11] = system: HTLV-I provirus; experiment: amount of peripheral blood HTLV-I provirus (real-time quantitative PCR), clinical test in HAM patients; assay type: in vivo, human; conditions: for HTLV-I provirus amount, average: average of 12 cases, average at start 1268; for HTLV-I provirus amount: individual HAM cases, same s.c. regimen
Description: Therefore, for virological evaluation, the amount of peripheral blood HTLV-I provirus was monitored, immunological markers predicted to vary depending on a decrease in the provirus was simultaneously monitored, and the effect of pentosan polysulfate on HTLV-I was verified. In addition, the clinical effects (lower leg motility function etc.) were evaluated simultaneously with the measurement of the virus amount, and the correlation between a decrease in the virus amount and the clinical effect was confirmed. Furthermore, the amount of HTLV-I provirus was measured before and after administration of pentosan polysulfate, and a virus, amount decreasing effect of pentosan polysulfate was confirmed, whereby the possibility of providing a causal therapy was verified. Subject: 12 cases of HAM patients (9 females, 3 males, age; 49-77 years old, duration of illness; 3-52 years) (Table 1). Test method: Sodium pentosan polysulfate was subcutaneously administered by 25 mg for the first time (0 week), 50 mg 1 week later, 100 mg once a week from the second week to the 7th week to the brachial region. The test medicament was used in 1 ml ampoule of sodium pentosan polysulfate (100 mg/ml) supplied by bene pharmaChem of Germany.

[12] = system: HAM patients; experiment: spasticity on modified Ashworth scale (MAS), clinical test in HAM patients; assay type: in vivo, human; conditions: individual HAM cases; same s.c. regimen; blank = spasticity absent from the start
From the text: Spasticity is one type of hypertonia, and caused by an abnormal increase in the muscle stretch reflex. Clinically, spasticity is a speed-dependent resistance to stretch, which is defined to be the state wherein the muscle is excessively contracted due to the lack of suppression from the central nervous system, which finally leads to an increase in the reflection. As a measurement method of spasticity, the Ashworth scale is well known, and its modified version by Bohannon is often used clinically (modified Ashworth scale; Bohannon R W, Smith M B: Interrater reliability of a Modified Ashworth Scale of Muscle Spasticity. Phys Ther 67: 206-207, 1987). […]
as §4

[13] = system: HTLV-I provirus; conditions: anti-HTLV-I therapy with HDAC inhibitor; cited from earlier work

Question: What does the source list for heparin?
Answer: HTLV-I infection inhibitory action [1]: shows an HTLV-I infection inhibitory action; clinical effectiveness for HAM patients [2]: clinically effective for HAM patients

Question: Which “effectiveness as anti-HTLV-I therapy for HAM” value [3] does the source give for zidovudine+lamivudine here?
Answer: effectiveness thereof was not verified

Question: With sodium pentosan polysulfate as the compound, how does the “HTLV-I infection inhibitory action” value [1] read?
Answer: very strong HTLV-I infection inhibitory action at a low dose as compared to heparin

Question: And the 10 m gait ([4]; week 8)?
Answer: 7.5 s and 5.5 s and 15.8 s and 6.4 s and 8.9 s and 11.5 s and 6.5 s and 32.5 s and 13.9 s and 18.5 s

Question: What about the 10 m gait ([4]; week 12) of the same compound?
Answer: 7.1 s and 5.3 s and 16.9 s and 6.2 s and 9.7 s and 12.5 s and 6.5 s and 31.9 s and 15.8 s and 19.9 s

Question: And the “10 m gait, mean value” ([4]; week 8, mean at start 14.7 (Table 6 in seconds))?
Answer: 12.7

Question: What about the “10 m gait, mean value” ([4]; week 12, mean at start 14.7) of the same compound?
Answer: 13.2

Question: And the sIL-2R ([5]; week 2)?
Answer: 511 pg/mL and 1462 pg/mL and 1086 pg/mL and 933 pg/mL and 1475 pg/mL and 1741 pg/mL and 1524 pg/mL and 1405 pg/mL and 2264 pg/mL and 1256 pg/mL and 1688 pg/mL and 1474 pg/mL

Question: What about the sIL-2R ([5]; week 8) of the same compound?
Answer: 577 pg/mL and 1482 pg/mL and 904 pg/mL and 1152 pg/mL and 1475 pg/mL and 1551 pg/mL and 1460 pg/mL and 1954 pg/mL and 2420 pg/mL and 1452 pg/mL and 1774 pg/mL and 1964 pg/mL

Question: What about the sIL-2R ([5]; week 12) of the same compound?
Answer: 627 pg/mL and 1357 pg/mL and 914 pg/mL and 1073 pg/mL and 1557 pg/mL and 1706 pg/mL and 1716 pg/mL and 1864 pg/mL and 2516 pg/mL and 1480 pg/mL and 1882 pg/mL and 1774 pg/mL

Question: What about the “soluble IL-2 receptor (sIL-2R) test, significance of change” value ([5]; start vs weeks 2, 8, 12 (Table 3)) of the same compound?
Answer: significant difference was not observed

Question: What about the “anti-HTLV-I antibody test, significance of change” value [6] of the same compound?
Answer: significant difference was not observed

Question: And the “improvement in motility dysfunction level” value [7]?
Answer: only in one case (from 6 to 5 in week 8)

Question: And the 30 m gait ([8]; week 8)?
Answer: 22.1 s and 16.8 s and 52.3 s and 20.8 s and 26.7 s and 36.5 s and 20.5 s and 96.5 s and 41.6 s

Question: What about the 30 m gait ([8]; week 12) of the same compound?
Answer: 22 s and 16.6 s and 59.6 s and 19.8 s and 28.6 s and 38.1 s and 20.5 s and 97.5 s and 45.4 s

Question: And the “30 m gait, mean value” ([8]; week 8, mean at start 41.7 (Table 7 in seconds))?
Answer: 37.1

Question: And the “30 m gait, mean value” ([8]; week 12, mean at start 41.7)?
Answer: 38.7

Question: And the “descending stairs (10 stairs)” value ([9]; week 8)?
Answer: 4.8 seconds (2×) and 4 seconds and 17.5 seconds and 9.1 seconds (2×) and 7.4 seconds and 4.1 seconds

Question: And the “descending stairs (10 stairs)” value ([9]; week 12)?
Answer: 4.9 seconds and 4 seconds (3×) and 21.2 seconds and 12.4 seconds and 8.7 seconds and 8.9 seconds

Question: And the “descending stairs, mean value” ([9]; week 8, mean at start 9.3 (Table 8 in seconds))?
Answer: 7.6

Question: What about the “descending stairs, mean value” ([9]; week 12, mean at start 9.3) of the same compound?
Answer: 8.5

Question: What about the “lymphoblastogenesis test (stimulation index to PHA)” value ([10]; individual HAM cases (table row = case no.), s.c. 25 mg wk 0, 50 mg wk 1, 100 mg weekly wk 2-7, week 8 from start) of the same compound?
Answer: 9.2 and 12.4 and 4.7 and 7.9 and 16.3 and 14 and 13.3 and 9.4 and 3.7 and 9.7 and 11.9 and 8.2

Question: What about the “lymphoblastogenesis test (stimulation index to PHA)” value ([10]; individual HAM cases, same s.c. regimen, week 12 from start (week 5 after completion)) of the same compound?
Answer: 6.1 and 7.1 and 6.7 and 15 and 18.1 and 24.7 and 17.2 and 9.3 and 4.9 and 9.2 and 12.2 and 6.9

Question: And the “lymphoblastogenesis test, significance of change” value ([10]; start vs week 8, week 12 (Table 2))?
Answer: significant difference was not observed

Question: What about the “HTLV-I provirus amount, significance of change” value ([11]; all 12 cases, week 8 from start of treatment) of the same compound?
Answer: no significant difference

Question: What about the “average decrease in amount of HTLV-I provirus” value ([11]; all 12 cases, week 8 from start of treatment vs start) of the same compound?
Answer: about 9%

Question: What about the “HTLV-I provirus amount, average” value ([11]; week 8) of the same compound?
Answer: 1153 copy number/10^4 PBMC

Question: And the “HTLV-I provirus amount, average” value ([11]; week 12)?
Answer: 1241 copy number/10^4 PBMC

Question: What about the HTLV-I provirus amount ([11]; week 8) of the same compound?
Answer: 1140 copy number/10^4 PBMC and 648 copy number/10^4 PBMC and 699 copy number/10^4 PBMC and 503 copy number/10^4 PBMC and 999 copy number/10^4 PBMC and 2149 copy number/10^4 PBMC and 479 copy number/10^4 PBMC and 830 copy number/10^4 PBMC and 2030 copy number/10^4 PBMC and 1621 copy number/10^4 PBMC and 837 copy number/10^4 PBMC and 1900 copy number/10^4 PBMC

Question: And the HTLV-I provirus amount ([11]; week 12)?
Answer: 1750 copy number/10^4 PBMC and 668 copy number/10^4 PBMC and 697 copy number/10^4 PBMC and 471 copy number/10^4 PBMC and 1032 copy number/10^4 PBMC and 2052 copy number/10^4 PBMC and 460 copy number/10^4 PBMC and 767 copy number/10^4 PBMC and 2380 copy number/10^4 PBMC and 1971 copy number/10^4 PBMC and 853 copy number/10^4 PBMC and 1794 copy number/10^4 PBMC

Question: And the “HTLV-I provirus amount, course after completion of administration” value ([11]; week 5 after completion of administration (week 12))?
Answer: a tendency of returning to the amount at the start of the treatment

Question: And the “improvement of spasticity (evaluated on modified Ashworth scale (MAS))” value [12]?
Answer: (+) (evaluated (+) when either lower leg improved by 1 grade or more)

Question: For `CCCC(CCC)C(=O)O` [valproic acid], which “effect on amount of peripheral blood HTLV-I provirus” value [13] is on record?
Answer: transiently and markedly increases the amount of peripheral blood HTLV-I provirus
